Assay results reported in publication PMC13355314, “Charged molecular glue discovery enabled by targeted degron display” (Nature Chemical Biology, 2026).
Where “and” joins values, the source holds several entries; their conditions need not be identical. Equal entries are not always repeated. Entries after “also recorded” stand apart in the source; their conditions may differ.

Experiments:
GSH chemical stability = assay type: physicochemical; conditions: for half-life: GSH chemical stability; for remaining at 5 min / remaining at […] / remaining at 0.5 h / remaining at 1 h / remaining at 2 h: GSH; for remaining at […]: 15 min; for remaining at 0.5 h: 30 min; for remaining at 1 h: 60 min; for remaining at 2 h: 120 min
Excerpt: Afatinib Time Peak Area %Remaining Ln T1/2
(Ctrl) (min) Ratio (%remaining) (min)
(min) Ratio (%remaining) (min)

[1] = system: ternary complex of *BRD4BD1, ZZ1-SO2H and YPEL5-WDR26; assay: Competitive FP disrupting the ternary complex; assay type: binding, human
Excerpt: The four-parameter [inhibitor] versus response model was applied to estimate the IC50.

Microsome stability, HLM = assay type: in vitro ADME; conditions: human, liver microsomes; for half-life: read-out: HLM Stability (T1/2 min)
Microsome stability, MLM = assay type: in vitro ADME; conditions: mouse, liver microsomes; for half-life: read-out: MLM Stability (T1/2 min)
[2] = molecular target: T1, FAM–BRD4BD1 + YPEL5–WDR26 module (Homo sapiens, UniProt O60885+P62699); assay: FP assay quantifying ternary complex formation; conditions: *BRD4BD1 binding to YPEL5–WDR26 upon degrader titration
T1 construct: fluorescent BRD4 bromodomain substrates, either in isolation (BRD4BD1 and BRD4BD2) or in tandem (BRD4BD1+BD2); GST (N, cleaved yes); made in house; host or cells: BRD4BD1: E. coli BL21 (DE3) RIL; YPEL5–WDR26ΔCTLH: Trichoplusia ni High Five insect cells
Excerpt: The potency of the degraders was expressed as the EC50 estimated by nonlinear regression using a four-parameter [agonist] versus response model.

BRD4 = molecular target: T2, BRD4 (Homo sapiens, UniProt O60885); assay: HiBiT–BRD4 assay (endogenous BRD4 protein levels); assay type: cell-based
T2 construct: Endogenous BRD4 protein levels were evaluated using the Nano-Glo HiBiT lytic detection system; endogenous in cells; host or cells: Jurkat (HiBiT knock-in; some series in YPEL5-/- cells re-expressing WT or mutant YPEL5-FLAG)
Method: Introduction of a HiBiT coding sequence into the endogenous BRD4 locus in Jurkat cells was achieved using CRISPR–Cas9 genome editing. Alt-R CRISPR RNA (crRNA) and trans-activating crRNA (tracrRNA) (Integrated DNA Technologies) were resuspended in nuclease-free duplex buffer (Integrated DNA Technologies) at a concentration of 200 µM each. Equal volumes of crRNA and tracrRNA were mixed (final concentration of 100 µM each) and heated for 5 min at 95 °C. After heating, the complex was gradually cooled to room temperature. The oligo complex was then incubated at room temperature for 20 min with the Alt-R Cas9 nuclease V3 (Integrated DNA Technologies) to form the ribonucleoprotein (RNP) complex. The double-stranded DNA homology-directed repair (HDR) template (HiBiT–BRD4 with extensions, shown below), the RNP complex and an electroporation enhancer (Integrated DNA Technologies) were then electroporated into Jurkat cells using an Amaxa 4D-Nucleofector (Lonza). Electroporated cells were transferred to medium with HRD enhancer (Integrated DNA Technologies). Single cells were subsequently isolated by fluorescence-activated cell sorting and HiBiT expression from individual clones was detected with the Nano-Glo HiBiT lytic detection system (Promega). Sequences for the crRNA and HDR donor are provided below.
Endogenous BRD4 protein levels were evaluated using the Nano-Glo HiBiT lytic detection system (Promega). In brief, 1.5 × 10^4 HiBiT–BRD4 Jurkat cells were seeded into 384-well plates and incubated with the indicated concentrations of compounds. After 5 h, the plates were subjected to a Nano-Glo HiBiT lytic detection system as described in the manufacturer’s manual. The HiBiT–BRD4 assays were conducted in biological triplicates.

YPEL5 = molecular target: T3, YPEL5 (Homo sapiens, UniProt P62699); assay: Octet BLI, binary affinity of degrader for YPEL5 (no BRD4BD1); assay type: binding; conditions: absence of BRD4BD1
T3 construct: made in house; host or cells: Trichoplusia ni High Five insect cells
T3 sequence (P62699 2-121): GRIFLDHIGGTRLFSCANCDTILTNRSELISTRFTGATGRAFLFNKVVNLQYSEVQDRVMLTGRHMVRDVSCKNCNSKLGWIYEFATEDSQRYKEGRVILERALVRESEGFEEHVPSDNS
Method: To quantify interactions between the degrader-bound neosubstrates and the CTLH E3 neosubstrate receptor module, we determined the KD using Octet BLI.
For each measurement, one of the loaded sensors was dipped in the reference solution containing 0 or 5 μM degrader in the BLI binding buffer (in the absence of the analyte protein). The reference response values were subtracted from the responses elicited by all the neosubstrate-containing solutions before data analysis. All BLI experiments were carried out at 20 °C using the eight-channel Octet R8 system (Sartorius). Concentrated proteins and compounds were diluted in the BLI binding buffer composed of 25 mM HEPES pH 7.5, 150 mM NaCl, 1 mM DTT and 0.05% Tween-20.
The raw data were processed with Octet analysis software (Sartorius) by applying a global fitting with linked Rmax values (assuming a 1:1 binding model). […] KD was estimated by nonlinear regression using the one-site binding model.

*BRD4BD1 / YPEL5-CTLH E3 = molecular target: T4, *BRD4BD1 / YPEL5-CTLH E3 (Homo sapiens, UniProt O60885+P62699); assay: In vitro ubiquitylation assay (YPEL5-CTLH E3, UBE2H); assay type: biochemical; conditions: YPEL5-CTLH E3-dependent
T4 construct: fluorescent BRD4 bromodomain substrates, either in isolation (BRD4BD1 and BRD4BD2) or in tandem (BRD4BD1+BD2); GST (N, cleaved yes); made in house; host or cells: CTLH E3 and UBA1: High Five insect cells; BRD4BD1, UBE2H, ubiquitin: E. coli BL21 (DE3) RIL
Method: All ubiquitylation assays were performed at room temperature in the final reaction buffer containing 25 mM HEPES pH 7.5, 150 mM NaCl, 0.25 mM DTT, 5 mM ATP and 10 mM MgCl2. Samples at indicated time points were quenched by mixing an aliquot of the total reaction mixture with a reducing Laemmli buffer and subjected to SDS–PAGE. Substrate ubiquitylation was visualized by a fluorescence scan of SDS–PAGE gels using the Amersham Typhoon Imager 600 (GE Healthcare).
The mixture was incubated at room temperature for 1 h and supplemented with 0.2 μM E1 UBA1 and 20 μM ubiquitin to initiate the reaction.

Plasma stability, human = assay type: in vitro ADME; conditions: read-out: Plasma Stability (T1/2 min)
BRD2, BRD3, BRD4 = assay: Western blotting of BET protein degradation; assay type: cell-based, human; conditions: immunoblotting (and proteome-wide MS)
Method: Total cells lysates were prepared in 2× sample loading buffer (that is, 250 mM Tris-HCl pH 6.8, 4% SDS, 10% glycerol, 0.006% bromophenol blue, 2% β-mercaptoethanol, 50 mM sodium fluoride and 5 mM sodium orthovanadate). The samples with cell lysates were boiled for 5–8 min at 95 °C. The protein concentrations of the cell lysates were quantified using the BCA method and a BCA protein assay kit (Thermo Fisher Scientific). […] After washing the membranes with PBS for 30 min, the membranes were detected on a Li-COR Odyssey CLx system.

BRD4BD2 = molecular target: T5, BRD4BD2 (Homo sapiens, UniProt O60885); assay: BRD4 reporter stability analysis, BRD4BD2–eGFP (K562-Cas9, flow cytometry); assay type: cell-based; conditions: for DC50: BRD4BD2 reporter, K562, 16 h; for Dmax: K562
T5 construct: host or cells: K562-Cas9
Method: (§1) The Cilantro 2 reporter vector (PGK.BsmBICloneSite-10aaFlexibleLinker-eGFP.IRES.mCherry. cppt.EF1α.PuroR; Addgene, 74450) was used for flow-based degradation assays. […] Reporter cell lines were generated as described previously.
(§2) Then, 50 µl of cell suspension was seeded in 384-well plates and immediately treated with DMSO or drug for 16 h. The indicated drugs were dispensed with a D300 digital dispenser (Tecan Genomics). The fluorescence signal was quantified by flow cytometry (FACSymphony flow cytometer, BD Biosciences). Using FlowJo (flow cytometry analysis software, BD Biosciences), the geometric mean of the eGFP and mCherry fluorescent signal for round and mCherry-positive cells was calculated. The ratio of eGFP to mCherry was normalized to the average of ten DMSO-treated controls.

[3] = system: FAM–BRD4BD1 + YPEL5–WDR26; assay: Real-time FP monitoring the rate of ternary complex formation; assay type: binding, human; conditions: in vitro, DTT-containing buffer
Method: Here, the concentration of DTT in the binding buffer used for preparing the tracer–E3 ligase mixture varied from 0.1 to 5 mM.

BRD2BD1 = molecular target: T6, BRD2BD1 (Homo sapiens, UniProt P25440); assay: Cellular fluorescent reporter assay, BRD2 BD1; assay type: cell-based
T6 construct: Cellular fluorescent reporter assay testing ZZ1-induced degradation of BRD2 and BRD3 BD1 bromodomains; expressed in transfected cells
T6 sequence (P25440 74-180 limits assumed): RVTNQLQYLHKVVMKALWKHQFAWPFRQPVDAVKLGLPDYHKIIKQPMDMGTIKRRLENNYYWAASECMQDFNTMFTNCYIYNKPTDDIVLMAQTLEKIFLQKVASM
Method: as §2

BRD4BD1+BD2 = molecular target: T7, BRD4BD1+BD2 (Homo sapiens, UniProt O60885); assay: BRD4 reporter stability analysis, BRD4BD1+BD2–eGFP (K562-Cas9, flow cytometry); assay type: cell-based; conditions: K562, 16 h
T7 construct: host or cells: K562-Cas9
Method: as §1, §2

BRD3BD1 = molecular target: T8, BRD3BD1 (Homo sapiens, UniProt Q15059); assay: Cellular fluorescent reporter assay, BRD3 BD1; assay type: cell-based
T8 construct: Cellular fluorescent reporter assay testing ZZ1-induced degradation of BRD2 and BRD3 BD1 bromodomains; expressed in transfected cells
T8 sequence (Q15059 34-140 limits assumed): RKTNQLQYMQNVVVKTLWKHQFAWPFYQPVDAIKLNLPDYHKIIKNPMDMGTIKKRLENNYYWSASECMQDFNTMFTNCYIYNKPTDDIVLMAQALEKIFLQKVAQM
Method: as §2

BRD4BD1 = molecular target: T9, BRD4BD1 (Homo sapiens, UniProt O60885); assay: cell-based; assay type: cell-based; conditions: K562, 16 h
T9 construct: host or cells: K562-Cas9
Method: Reporter cell lines were generated as described previously.
as §2

Plasma stability, mouse = assay type: in vitro ADME; conditions: read-out: Plasma Stability (T1/2 min)

## CN(C)C/C=C/C(=O)Nc1cc2c(Nc3ccc(F)c(Cl)c3)ncnc2cc1O[C@H]1CCOC1 [Afatinib, reference compound]
GSH chemical stability; glutathione (GSH) solution
  half-life: 25.2 min
  remaining at 5 min: 82.1%
  remaining at […]: 48.1%
  remaining at 0.5 h: 27.6%
  remaining at 1 h: 13.8%
  remaining at 2 h: 3.43%

## Cc1sc2c(c1C)C(c1ccc(Cl)cc1)=N[C@@H](CC(=O)OC(C)(C)C)c1nnc(C)n1-2 [JQ1, reference compound]
[1]
  disruption of the ternary complex: could disrupt the ternary complex

## CCN(CC)CCNC(=O)c1c(C)[nH]c(/C=C2\C(=O)Nc3ccc(F)cc32)c1C [Sunitinib, reference compound]
Microsome stability, HLM
  microsomal CLint: 32 µL/min/mg
  half-life: 43.5 min
Microsome stability, MLM
  microsomal CLint: 38 µL/min/mg
  half-life: 36.5 min

## Cc1sc2c(c1C)C(c1ccc(NC(=O)c3ccc(S(=O)O)c(Cl)c3)cc1)=N[C@@H](CC(=O)OC(C)(C)C)c1nnc(C)n1-2 [ZZ1-SO2H]
[2]
  EC50: 60 nM and ~60 nM and 74 nM
BRD4
  activity in cellular assays: inactive
YPEL5
  affinity between degrader and YPEL5 by BLI: did not observe measurable affinity
*BRD4BD1 / YPEL5-CTLH E3
  BRD4BD1 ubiquitylation in vitro: promoted robust BRD4BD1 ubiquitylation

## Cc1sc2c(c1C)C(c1ccc(NC(=O)c3ccc(S(=O)(=O)O)c(Cl)c3)cc1)=N[C@@H](CC(=O)OC(C)(C)C)c1nnc(C)n1-2 [ZZ1-SO3H]
BRD4
  activity in cellular assays: inactive
*BRD4BD1 / YPEL5-CTLH E3
  BRD4BD1 ubiquitylation in vitro: promoted robust BRD4BD1 ubiquitylation

## Cc1sc2c(c1C)C(c1ccc(NC(=O)c3ccc(S(=O)(=O)F)c(Cl)c3)cc1)=N[C@@H](CC(=O)OC(C)(C)C)c1nnc(C)n1-2 [ZZ1]
Plasma stability, human
  half-life: 45 min
Microsome stability, HLM
  microsomal CLint: 195 µL/min/mg
  half-life: 7.1 min
BRD2, BRD3, BRD4
  BET protein degradation: induced selective degradation of BET proteins (BRD3, BRD4 and, to a lesser extent, BRD2); also recorded: especially potent in the Ewing sarcoma TC-71 cell line
BRD4BD2
  DC50: 532 ± 80.2 nM
  Dmax: 40%
BRD4; Jurkat
  Dmax: 82%
BRD4; Jurkat cells pretreated with MG132 for 1 h, then ZZ1 5 h
  DC50: > 20000 nM
BRD4; Jurkat cells pretreated with MLN-4924 for 1 h, then ZZ1 5 h
  DC50: 1400 ± 130 nM
BRD4; Jurkat cells, 5 h
  DC50: 502 nM and 489 nM
BRD4; Jurkat, 5 h, cells pretreated with 100 μM GSH for 2 h
  DC50: 152 ± 19 nM
BRD4; Jurkat, 5 h, no GSH pre-treatment
  DC50: 237 ± 20 nM
BRD4; WT YPEL5-expressing Jurkat cells, 5 h
  DC50: 168 ± 15 nM
BRD4; YPEL5 L62A-expressing Jurkat cells, 5 h
  DC50: 841 ± 137 nM
BRD4; YPEL5 R41A-expressing Jurkat cells, 5 h
  DC50: 719 ± 102 nM
BRD4; YPEL5 T36A-expressing Jurkat cells, 5 h
  DC50: 971 ± 176 nM
Microsome stability, MLM
  microsomal CLint: 254 µL/min/mg
  half-life: 5.5 min
[3]
  rate of ternary complex formation: induced ternary complex formation slowly
BRD2BD1
  DC50: 70.1 ± 3.6 nM
  Dmax: 63%
BRD4BD1+BD2
  DC50: 75 ± 16.4 nM
  Dmax: 80%
BRD3BD1
  DC50: 33.5 ± 5.4 nM
  Dmax: 73%
BRD4BD1; BRD4BD1 reporter
  DC50: 126 nM and 128 nM
  Dmax: 88%
BRD4BD1; K562, BRD4BD1 reporter
  Dmax: 69%
GSH chemical stability; buffer
  half-life: < 5 min
  remaining at 5 min: 26.7%
  remaining at […]: 9.36%
  remaining at 0.5 h: 3.21%
  remaining at 1 h: 3.12%
  remaining at 2 h: 2.27%
Plasma stability, mouse
  half-life: 57 min

## Cc1sc2c(c1C)C(c1ccc(NC(=O)c3cc(Cl)c(S(=O)O)c(Cl)c3)cc1)=N[C@@H](CC(=O)OC(C)(C)C)c1nnc(C)n1-2 [ZZ2-SO2H, 4-((4-((S)-6-(2-(tert-butoxy)-2-oxoethyl)-2,3,9-trimethyl-6H-thieno[3,2-f][1,2,4]triazolo[4,3-a][1,4]diazepin-4-yl)phenyl)carbamoyl)-2,6-dichlorobenzenesulfinic acid]
[2]
  EC50: < 74 nM
*BRD4BD1 / YPEL5-CTLH E3
  BRD4BD1 ubiquitylation in vitro: promotes more robust BRD4BD1 ubiquitylation

## Cc1sc2c(c1C)C(c1ccc(NC(=O)c3cc(Cl)c(S(=O)(=O)F)c(Cl)c3)cc1)=N[C@@H](CC(=O)OC(C)(C)C)c1nnc(C)n1-2 [ZZ2]
Plasma stability, human
  half-life: 14 min
Microsome stability, HLM
  microsomal CLint: 670 µL/min/mg
  half-life: 2.1 min
BRD4BD2
  DC50: 198 ± 75.5 nM
  Dmax: 31%
BRD4; Jurkat cells, 5 h
  DC50: 169 nM
Microsome stability, MLM
  microsomal CLint: 741 µL/min/mg
  half-life: 1.9 min
[3]
  rate of ternary complex formation: much faster rate
BRD2BD1
  DC50: 46.4 ± 6.6 nM
  Dmax: 76%
BRD3BD1
  DC50: 21.1 ± 3.1 nM
  Dmax: 82%
BRD4BD1; BRD4BD1 reporter
  DC50: 91 ± 8.8 nM
BRD4BD1; K562, BRD4BD1 reporter
  Dmax: 81%
GSH chemical stability; buffer
  half-life: < 5 min
  remaining at 5 min: 9.27%
  remaining at […]: 4.72%
  remaining at 0.5 h: 0%
  remaining at 1 h: 0%
  remaining at 2 h: 0%
Plasma stability, mouse
  half-life: 7 min
